Square brackets hold non-standard residues; d marks the D form. Peptide text beside a SMILES is read from it.
Columns and labels:
[1] = tested on: PC3 human prostate cancer cell line; assay: XTT proliferation (cytotoxicity) assay, PC3; format: cell-based; details: PC3, pH 7.4, 24 h
Protocol: (§1) The CL1 human prostate carcinoma (PC) cell line is an androgen-independent (AI) subclone of LNCaP cell line, which was generated by culturing androgen-dependent (AD) LNCaP cells in charcoal-stripped, […], as described (Patel et al. 2000). 22RV1 human PC cells are AI sub-clones of the AD prostatic adenocarcinoma CWR22 xenograft (Sramkoski et al. 1999). CL1 and 22RV1 (ATCC, USA) were grown in RPMI-1640 supplemented with 10% FCS (Biological Industries, Beit Haemek, Israel). PC3 and DU145 are androgen-insensitive (AI) (non-responsive), invasive human prostate cancer cell lines. NIH-3T3 mouse fibroblast cell lines (ATCC, USA) were grown in DMEM supplemented with 10% BS. Murine Lewis lung carcinoma (LLC) cell lines were also grown in DMEM medium supplemented with 10% fetal calf serum and antibiotics under the same conditions as above.
(§2) The anticancer activity of the diastereomers 1, 5 and 11-16, 36-39, 42 and 44 was examined against human CL1 prostate cancer, murine LLC (Lewis lung carcinoma), DU 145 and PC3 cell lines. The cell selectivity of the diastereomeric peptides was also studied by examining their effect on NIH-3T3 normal mouse fibroblasts cell line.
A 96-well plate (Falcon) was used for the XTT proliferation assay. Cancer cells were grown for 24 hours (day 1) in RPMI-1640 medium (5×10^3, 7×10^3, 1×10^4 and 7×10^3 cells/100 μl for LLC, CL1, 22RVI, DU 145 and PC3, respectively) supplemented with 10% fetal calf serum and antibiotics, at 37° C., in humidified atmosphere at 5% CO2 and 95% air, resulting in growth medium pH of 7.4. […]
In day 3, XTT reaction solution was prepared by adding to 100 μl aliquots of activation solution (sodium 3′-[1-(phenyl-aminocarbonyl)-3,4-tetrazolium]-bis(4-methoxy-6-nitro) benzene sulfonic acid hydrate and N-methyl dibenzopyrazine methyl sulfate; mixed in a proportion of 50:1) (protected from light and kept in −20° C.), the substrate. […] The optical density was read at wavelength of 450 nm in an ELISA plate reader. Cell viability was determined relative to the control and final results were recorded. […]

[2] = tested on: MDA-MB-231 breast tumor metastases in lymph nodes and lungs; assay: Inhibition of formation of lung and lymph node metastases derived from breast cancer; format: in vivo, SCID/NCr mice
Excerpt: Monitoring of solid metastases derived for breast tumor was done by in vivo fluorescence using IVIS as described above in (iii). At the end of the treatment (day 38), the mice were killed, and the lungs and lymph nodes were removed and monitored for fluorescence of metastases derived from the breast cancer. For metastases quantification, the lungs and right lymph nodes were excised and fixed in 4% buffered formaldehyde. Paraffin-embedded 5-μm sections were stained with H&E. The percentage of metastatic cell area of total section area was calculated using the Image-Pro plus 4.1 software. The dissected lungs and lymph nodes were analyzed by histology. […] Metastasis quantification was done according to areas from three different sections of each organ (P<0.005).

[3] = tested on: 22RV1 prostate tumor lung metastases; assay: Inhibition of prostate tumor-derived lung metastases formation
Excerpt: During the experiment, the mice were monitored continuously for clinical signs of toxicity.

[4] = tested on: Murine Lewis lung carcinoma (LLC) cell line; assay: XTT proliferation (cytotoxicity) assay, LLC; format: cell-based
Protocol: as §1, §2
A 96-well plate (Falcon) was used for the XTT proliferation assay. Cancer cells were grown for 24 hours (day 1) in RPMI-1640 medium ([…] cells/100 μl for LLC, CL1, 22RVI, DU 145 and PC3, respectively) supplemented with 10% fetal calf serum and antibiotics, at 37° C., in humidified atmosphere at 5% CO2 and 95% air, resulting in growth medium pH of 7.4. NIH-3T3 fibroblast cells (1×10^4 cells/100 μl) were grown in DMEM medium supplemented with 10% bovine calf serum and antibiotics under the same conditions as described above for the cancerous cells. Wells in the last two rows served as blanks (medium only, for measuring the background color of the medium) and 100% survival controls (cells and medium only without treatment), respectively.
In day 2, the peptides were dissolved in sterile PBS to a concentration of 200 μM (or 500 μM). The medium in the assay wells was replaced with 100 μl serum free medium. For the assays at pH 6, the medium was initially concentrated (×5 or ×10) and then diluted with double distilled water and addition of sodium carbonate. Before reaching the correct dilution, the medium was adjusted to pH 6 and then more water was added to reach the final dilution. The cells were grown in physiological pH, and the acidic pH was used only during the 24 hours incubation with the peptides. A sign for the correct acidity was a light yellow color of the medium. In line A of the plate, 160 μl of serum free medium was added, if the initial peptide concentration was 500 μM.
Peptide solutions, 100 μl (or 40 μl) were added to each assay well in line A, such that the final concentration of the peptide was […] and the volume 200 μl. The medium in the wells was mixed with multichannel pipette 5 times and 100 μl of it were transferred to the next row of wells (line B), to give a peptide concentration of 50 μM. The double dilution of the peptides continued downstream the plate in the same manner. The plates were then incubated for 24 h.
In day 3, XTT reaction solution was prepared by adding to 100 μl aliquots of activation solution (sodium 3′-[1-(phenyl-aminocarbonyl)-3,4-tetrazolium]-bis(4-methoxy-6-nitro) benzene sulfonic acid hydrate and N-methyl dibenzopyrazine methyl sulfate; mixed in a proportion of 50:1) (protected from light and kept in −20° C.), the substrate. 50 μl of XTT reaction solution were added to each well and the plates were incubated for 2 hours (37° C. and 5% CO2+95% air. In cases the incubation was not enough for the creation of the color, it was extended for up to 24 hours). The optical density was read at wavelength of 450 nm in an ELISA plate reader. Cell viability was determined relative to the control and final results were recorded. The results were confirmed using replications in at least three independent experiments. […]

[5] = tested on: pepsin, trypsin, and elastase; assay: Resistance to proteolytic digestion (reverse-phase HPLC); format: in vitro ADME; details: after 2 hr, 140 μM peptide, 25 μM protease, 37° C.
Protocol: In order to reach their target, the diastereomers have to withstand proteolytic digestion of proteases, which may occur after their administration and during the time until they reach the target site. The susceptibility of the peptides 13 and 14 to proteolytic digestion by pepsin (from porcine stomach mucosa, Sigma), trypsin (from bovine pancreas, Sigma), and elastase (from human leukocytes, Sigma) was assessed by reverse-phase HPLC. As a negative control, the all L-amino acid analog peptides were used. Equal amounts of the peptides were dissolved in PBS (35 mM phosphate buffer/0.15 M NaCl, pH 7.3) at a final concentration of 140 μM, to which 25 μM of protease were added. […] After the addition of the appropriate protease inhibitor to stop the reaction, aliquots were injected to C18 column and the amounts of the intact peptides 13 and 14 and their all L analogs were evaluated using their absorbance at 215 nm.

With `CC(C)C[C@H](NC(=O)[C@H](CC(C)C)NC(=O)[C@@H](CCCCN)NC(=O)[C@H](CC(C)C)NC(=O)[C@H](CC(C)C)NC(=O)[C@H](Cc1c[nH]cn1)NC(=O)[C@@H](CCCCN)NC(=O)[C@@H](CC(C)C)NC(=O)[C@H](CC(C)C)NC(=O)[C@@H](CCCCN)NC(=O)[C@H](Cc1c[nH]cn1)NC(=O)[C@H](CC(C)C)NC(=O)[C@@H](CC(C)C)NC(=O)[C@H](CCCCN)NC(=O)[C@@H](N)CC(C)C)C(N)=O` [Peptide 13] (H-LK[dL]LH[dK]L[dL][dK]HLL[dK]LL-NH2) the “Lethal Concentration (LC50)” value [1] was 25 µg/mL, the “lymph node metastasis fluorescence intensity” value ([2]; systemic administration) was “significant reduction” and the “histology of lungs and lymph nodes: population by cancer cells” value ([2]; vs control untreated mice, P<0.005) was “much less densely populated”. For the same compound, the “body weight compared with vehicle treated control group” value ([3]; mouse, in vivo) was “significant increase”, the lung metastases ([3]; systemic administration, vs untreated controls) was “entirely abolished” and the “clinical signs of toxicity (condition of animals)” value ([3]; throughout the assay period) was “good condition”. The “Lethal Concentration (LC50)” value ([4]; pH 6, 24 h) was 12.5 µg/mL, the “Lethal Concentration (LC50)” value ([4]; pH 7.4, 24 h) was 12.5 µg/mL and the proteases digestion [5] was about 50%.

From patent US20090305954A1, “HISTIDINE-CONTAINING DIASTEREOMERIC PEPTIDES AND USES THEREOF” (Yeda Research and Development Co. Ltd., priority 2005, published 2009)
